Experimental data reported in paper PMC11861696, “The First K^+-Channel Blocker Described from Tityus fasciolatus Venom: The Purification, Molecular Cloning, and Functional Characterization of α-KTx4.9 (Tf5)” (Toxins, 2025).
Positions of bridges follow the written chain, without caps; N, C: chain ends. Residues, ends and D or L forms follow the SMILES beside them. No end group written: not given here.

What was measured:
Kv1.2 [1] = biological target: T1, Kv1.2 (Homo sapiens, UniProt P16389); experiment: whole-cell patch-clamp, K+ current of Kv1.2 in HEK293T; type: cell-based
T1 construct: expressed in transfected cells; host or cells: HEK293T
Method: (§1) Human Embrionary kidney HEK293T cells were grown in Dulbeccos’s Modified Eagle’s Medium (Sigma-Aldrich, St. Louis, MO, USA) supplemented with 10% fetal calf serum (GIBCO-ThermoFischer, Waltham, MA, USA) and 1% Antibiotic-Antimycotic® (GIBCO-ThermoFischer, Waltham, MA, USA). HEK293T cells were transfected with 1 μg of pcDNA3-Kv1.1, pcDNA3-Kv1.2, or pcDNA3-Kv1.4 and 0.1 μg of EGFP (Clontech Laboratories, Palo Alto, CA, USA) using Lipofectamine 3000 (ThermoFischer, Waltham, MA, USA). L929 cells expressing the Kv1.3 channel were grown in Dulbeccos’s Modified Eagle’s Medium (Sigma-Aldrich) supplemented with 10% fetal calf serum and 100 units/mL of penicillin and 10 µg/mL of streptomycin. Cells were grown in an incubator with a moist atmosphere and 5% CO2, at a constant temperature of 37 °C.
(§2) Potassium macrocurrents (IKs) were measured in whole-cell mode using a HEKA EPC 10 USB amplifier and controlled by PATCHMASTER software version 2x92 (HEKA Elektronik, Lambrecht, Germany). Experiments were performed at a room temperature of 23 °C. […]
(§3) The pipette (internal) solution contained (mM) KCl 140, MgCl2 2, CaCl2 1, EGTA 10, and HEPES 10, with a pH of 7.3 corrected with KOH and an experimental osmolarity of 337 mOsmol. […] The solutions’ osmolarity was measured with a K-7400S semi-micro osmometer (Knauer Berlin, Germany). […]

Kv1.3 [2] = biological target: T2, Kv1.3 (Mus musculus, UniProt P16390); experiment: whole-cell patch-clamp, K+ current of Kv1.3 in L929; type: cell-based
T2 construct: expressed in transfected cells; host or cells: L929
Method: as §1, §2, §3

A549 carcinoma cell = system: A549 carcinoma cell; parameters: method as in PMID 21087602; conditions: cited from earlier work
Kv1.3 [3] = biological target: T2, Kv1.3; conditions: cited from earlier work
Kv1.2 [4] = biological target: T1, Kv1.2; conditions: cited from earlier work

T1 sequence (P16389 whole entry): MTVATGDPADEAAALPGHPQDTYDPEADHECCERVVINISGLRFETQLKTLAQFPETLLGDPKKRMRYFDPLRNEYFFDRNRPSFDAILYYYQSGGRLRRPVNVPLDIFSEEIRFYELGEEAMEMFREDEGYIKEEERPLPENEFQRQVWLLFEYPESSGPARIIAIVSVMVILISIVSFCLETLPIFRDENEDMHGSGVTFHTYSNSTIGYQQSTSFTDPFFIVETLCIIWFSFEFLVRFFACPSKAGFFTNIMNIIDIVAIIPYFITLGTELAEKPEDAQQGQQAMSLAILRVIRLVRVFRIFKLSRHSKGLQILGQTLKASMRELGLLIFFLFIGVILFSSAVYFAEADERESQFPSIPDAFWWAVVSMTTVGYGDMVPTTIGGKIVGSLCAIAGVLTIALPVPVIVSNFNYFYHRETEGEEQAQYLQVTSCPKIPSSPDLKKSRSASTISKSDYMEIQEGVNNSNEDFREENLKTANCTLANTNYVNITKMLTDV
T2 sequence (P16390 whole entry): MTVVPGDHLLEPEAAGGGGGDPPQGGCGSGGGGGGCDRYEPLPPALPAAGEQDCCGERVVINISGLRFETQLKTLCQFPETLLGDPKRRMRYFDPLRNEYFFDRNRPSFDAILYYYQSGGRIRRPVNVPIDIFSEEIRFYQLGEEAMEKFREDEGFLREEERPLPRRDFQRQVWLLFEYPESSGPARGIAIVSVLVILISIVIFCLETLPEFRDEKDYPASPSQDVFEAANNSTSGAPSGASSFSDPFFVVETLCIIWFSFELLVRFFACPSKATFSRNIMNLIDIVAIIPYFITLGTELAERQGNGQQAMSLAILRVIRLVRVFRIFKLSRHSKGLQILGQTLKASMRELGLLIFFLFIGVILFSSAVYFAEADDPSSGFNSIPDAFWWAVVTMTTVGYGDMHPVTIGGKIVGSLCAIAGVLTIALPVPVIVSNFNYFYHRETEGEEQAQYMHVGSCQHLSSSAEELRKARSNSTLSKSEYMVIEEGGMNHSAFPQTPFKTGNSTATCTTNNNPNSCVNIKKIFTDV

**Q.** What does the source list for `CC[C@H](C)[C@@H]1NC(=O)[C@H](C)NC(=O)[C@H](CCC(=O)O)NC(=O)[C@H](CCCCN)NC(=O)[C@@H]2CSSC[C@@H](C(=O)N[C@@H](Cc3ccc(O)cc3)C(=O)N3CCC[C@H]3C(=O)O)NC(=O)[C@H](CCCCN)NC(=O)[C@@H]3CSSC[C@H](NC(=O)[C@H](CCC(=O)O)NC(=O)[C@@H]4CCCN4C(=O)[C@H](CO)NC(=O)CNC(=O)[C@H](CCCNC(=N)N)NC(=O)[C@@H](NC(=O)[C@H](CCCNC(=N)N)NC(=O)[C@H](C)NC(=O)[C@H](CC(N)=O)NC(=O)[C@@H](NC(=O)[C@H](Cc4ccccc4)NC(=O)[C@@H](N)C(C)C)[C@@H](C)CC)CSSC[C@H](NC(=O)[C@H](CCCCN)NC(=O)CNC(=O)[C@H](C)NC(=O)[C@H](CO)NC(=O)[C@H](CCCCN)NC(=O)CNC1=O)C(=O)N[C@@H](CCSC)C(=O)N[C@@H](CC(N)=O)C(=O)NCC(=O)N[C@@H](CCCCN)C(=O)N3)C(=O)N[C@@H](CC(C)C)C(=O)N1CCC[C@H]1C(=O)N[C@@H](CCCCN)C(=O)N2` [Tf5] (H-VFINARCRGSPECLPKCKEAIGKSAGKCMNGKCKCYP-OH; disulfide 7-28, 13-33, 17-35)?
**A.** inhibition at 0.5 µM (Kv1.2 [1]; HEK-293T, 500 nM Tf5, HEK293T transfected with pcDNA3-Kv1.2, whole-cell, stimulated at 30 mV over 200 ms from -80 mV, 23 °C, n = 9): 90.2 ± 3.78%; IC50 (Kv1.2 [1]; dose–response curve, Figure 5E, n ≥5 for each concentration, read-out: Log IC50 Kv1.2 (converted)): 15.5 nM; inhibition at 0.5 µM (Kv1.3 [2]; 500 nM Tf5, L929 cells expressing Kv1.3, whole-cell, stimulated at 30 mV over 200 ms from -80 mV, 23 °C, n = 7): 81.8 ± 4.29%; IC50 (Kv1.3 [2]; dose–response curve, Figure 5F, n ≥5 for each concentration, read-out: Log IC50 Kv1.3 (converted)): 116 nM

**Q.** For “MgTx: isolated from the scorpion Centruroides margaritatus, Kv1.2 and Kv1.3 blocker (TIINVKCTSPKQCLPPCKAQFGQSAGAKCMNGKCKCYPH; ends and bridges not checked; cysteine pairing not given here; UniProt P40755 1-39, looked up)”, which “viability of A549 carcinoma cell cultures” value (A549 carcinoma cell) is on record?
**A.** Its value is “reduce the viability”.

**Q.** What about the “block of Kv1.3” value (Kv1.3 [3]) of the same compound?
**A.** Its value is “Kv1.2 and Kv1.3 blocker”.

**Q.** What about the “block of Kv1.2” value (Kv1.2 [4]) of the same compound?
**A.** The value was “Kv1.2 and Kv1.3 blocker”.
